Source: patent publication US7960439B1, “Environmentally sensitive foldable oligomers” (Iowa State University Research Foundation, Inc., priority 2006, dated 2011)

Assays:
[1] = Solvent denaturation of donor-acceptor labeled cholate oligomers followed by FRET (two-state model); assay type: physicochemical; settings: for m (in parentheses) / ΔG0 (in parentheses): linear fitting of unfolding free energies (FIG. 12); for m / ΔG0: nonlinear least-squares fitting to two-state model (FIG. 11)
Description: According to the two-state model, at any given concentration of the denaturant (i.e., DMSO), only the folded and unfolded conformations are present and their fractions are represented by fF and fU. Fraction of the unfolded conformation can be calculated by: fU=(IF−I)/(IF−IU) (2) in which I is the observed emission intensity of the acceptor in a given foldamer, IF is the emission intensity of the acceptor in the fully folded conformer, and IU is the emission intensity of the acceptor in the fully unfolded conformer. The equilibrium constant (Keq) and the free energy (ΔG) for the folding reaction can be calculated using ΔG=RT ln Keq=−RT ln(fU/fF)=−RT ln [fU/(1−fU)] (3)
In order to calculate fractions of the unfolded conformations, both IF and IU must be known for different foldamers. The emission intensity of the acceptor in the 1:1 mixture of the monomer A 8 (MA) and monomer D 9(MD) should be good approximations for IU since the emission intensity of the longer foldamers (e.g., pentamer-DA 5 (PDA)) does converge to that of the (MA+MD) mixture upon unfolding. The value of IF, on the other hand, cannot be obtained directly because none of the three foldamers seem to be fully folded under the initial condition of 1% DMSO.
In general, to obtain the values of IF for PDA, hexamer-DA 6 (HXDA), and heptamer-DA 7 (HPDA), it is useful to first make an assumption for fU (e.g., fU=0.1 for the HPDA) in 1% DMSO and use it to calculate the corresponding value of IF, which is designated IF(1). Using IF(1), the first set of fU(1) can be calculated at different DMSO percentages according to equation 2. In the two-state model, the free energies are linearly related to the concentration of denaturant (i.e., DMSO): ΔG=ΔG0−m[DMSO] (4) in which ΔG0 is the free energy for the folding reaction in the absence of denaturant and m measures how sensitive the folding equilibrium is toward DMSO percentage. From equations 2, 3, and 4, the following equation 5 can be obtained, where equation 5 describes the relationship between fU and DMSO percentage: fU=1/{1+1/exp[−(ΔG0−m[DMSO])/RT]} (5)
As a result, the initial values of ΔG0 and m (which are designated as ΔG0(1) and m1) can be obtained by nonlinear least-squares fitting to the first set of fU(1). The resulting ΔG0(1) and m1 are used to calculate the refined value of IF(2) using equations 5 and 2. This process is repeated as long as there is a fairly large difference between the entering IF(n) value and the resulting IF(n+1) value. In general, fitting of the data improves over several rounds of refinement. The refinement is stopped in the end when the values of IF(n) and IF(n+1) are within 1% of each other and are taken as the final value of IF.
In such data processing, it is assumed that IF was independent of DMSO percentage. Such an assumption is expected to underestimate the stability of the cholate foldamers. This is because the emission of MA is shown to be slightly quenched by DMSO—the emission intensity decreases by about 20% over 1-5% DMSO.
FRET Study of the Donor-Acceptor Labeled Cholate Oligomers 5-9 Stock solutions (2.0×10^−4M) of 5-9 in anhydrous THF were prepared. An aliquot (20.0 μL) of the stock solution was diluted by (a) 2.00 mL of ethyl acetate/hexane (v/v=1.05/2) with 1 vol. % DMSO and (b) […] 2.00 mL of ethyl acetate/hexane (v/v=1/1) with 1 vol. % DMSO in a quartz cuvet. Ten aliquots of DMSO (10.0 μL each) were added to the sample. After each addition, the sample was vortexed for 1 minute before the fluorescence spectrum was recorded. The excitation wavelength was set at 287 nm.

[2] = Fluorescence quenching of NBD-labeled cholate oligomers by hydrophilic quencher 11; assay type: binding
Description: Fluorescence Quenching of the NBD-Labeled Cholate Oligomers 1-4: Typical procedures for the quenching experiment are as follows. Stock solutions (1.0×10^−3 M) of 1-4 in anhydrous THF were prepared. An aliquot (25.0 μL) of the stock solution was diluted by 2.00 mL of carbon tetrachloride with 5 vol. % DMSO in a quartz cuvet. Aliquots (5.0 μL, 0.8 M) of the quencher (11 or 12) in THF were added with a Hamilton Gastight syringe. After each addition, the sample was vortexed for 1 minute before the fluorescence spectrum was recorded. The excitation wavelength was set at 336 nm and the maximum emission intensity at 527 nm was monitored.

[3] = DMSO in ethyl acetate/hexane (1/1)
[4] = DMSO in ethyl acetate/hexane (1/2)

SMILES | m (in parentheses) [1, 3] [kcal/mol] | ΔG0 (in parentheses) [1, 3] [kcal/mol] | m [1, 3] [kcal/mol] | ΔG0 [1, 3] [kcal/mol] | m (in parentheses) [1, 4] [kcal/mol] | ΔG0 (in parentheses) [1, 4] [kcal/mol] | m [1, 4] [kcal/mol] | ΔG0 [1, 4] [kcal/mol] | reduction of fluorescence by quencher 11 ([2]; 5.6 mM of 11 in 2% methanol/CCl4) [fold] | reduction of fluorescence by quencher 11 ([2]; 5.6 mM of 11 in 5% DMSO/CCl4) [fold]
CC(CCC(=O)Nc1cccc2ccccc12)C1CCC2C3C(O)CC4CC(NC(=O)CCC(C)C5CCC6C7C(O)CC8CC(NC(=O)CCC(C)C9CCC%10C%11C(O)CC%12CC(NC(=O)CCC(C)C%13CCC%14C%15C(O)CC%16CC(NC(=O)CCC(C)C%17CCC%18C%19C(O)CC%20CC(NC(=O)CCC(C)C%21CCC%22C%23C(O)CC%24CC(NS(=O)(=O)c%25cccc%26c(N(C)C)cccc%25%26)CCC%24(C)C%23CC(O)C%21%22C)CCC%20(C)C%19CC(O)C%17%18C)CCC%16(C)C%15CC(O)C%13%14C)CCC%12(C)C%11CC(O)C9%10C)CCC8(C)C7CC(O)C56C)CCC4(C)C3CC(O)C12C (stereo not shown) [Compound 6] | 0.89 | 1.9 | 0.81 ± 0.06 | 1.8 ± 0.1 | 0.52 | 1.8 | 0.50 ± 0.02 | 1.7 ± 0.1 | – | –
COC(=O)CCC(C)C1CCC2C3C(O)CC4CC(NC(=O)CCC(C)C5CCC6C7C(O)CC8CC(NC(=O)CCC(C)C9CCC%10C%11C(O)CC%12CC(NC(=O)CCC(C)C%13CCC%14C%15C(O)CC%16CC(NC(=O)CCC(C)C%17CCC%18C%19C(O)CC%20CC(NC(=O)CCC(C)C%21CCC%22C%23C(O)CC%24CC(NC(=O)CCC(C)C%25CCC%26C%27C(O)CC%28CC(Nc%29ccc([N+](=O)[O-])c%30nonc%29%30)CCC%28(C)C%27CC(O)C%25%26C)CCC%24(C)C%23CC(O)C%21%22C)CCC%20(C)C%19CC(O)C%17%18C)CCC%16(C)C%15CC(O)C%13%14C)CCC%12(C)C%11CC(O)C9%10C)CCC8(C)C7CC(O)C56C)CCC4(C)C3CC(O)C12C (stereo not shown) [Compound 4] | – | – | – | – | – | – | – | – | 60 | < 3
